The values below come from patent publication US20120316169A1, “2-ARYL-PROPIONAMIDE DERIVATIVES USEFUL AS BRADYKININ RECEPTOR ANTAGONISTS AND PHARMACEUTICAL COMPOSITIONS CONTAINING THEM” (DOMPÉ S.P.A., priority 2009, published 2012).

The experiment addresses T1, BKB1 receptors (Homo sapiens, UniProt P46663).
T1 construct: Human (IMR-90) lung fibroblast cells expressing native B1 receptors; endogenous in cells; host or cells: IMR-90 human lung fibroblasts, interleukin-treated to up-regulate BKB1 receptors
T1 sequence (P46663 1-353): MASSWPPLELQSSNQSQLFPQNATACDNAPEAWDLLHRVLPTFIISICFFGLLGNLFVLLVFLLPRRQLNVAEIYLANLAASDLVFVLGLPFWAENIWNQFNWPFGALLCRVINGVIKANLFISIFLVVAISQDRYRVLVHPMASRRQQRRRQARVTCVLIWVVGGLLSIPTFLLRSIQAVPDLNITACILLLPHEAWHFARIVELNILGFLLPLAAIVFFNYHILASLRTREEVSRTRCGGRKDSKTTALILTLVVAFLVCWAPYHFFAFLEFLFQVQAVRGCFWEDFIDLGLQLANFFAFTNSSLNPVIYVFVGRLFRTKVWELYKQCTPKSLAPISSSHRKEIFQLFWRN
The experiment in a line: Calcium mobilization assay (FLIPR), B1 receptors in IMR-90 cells. Type of experiment: cell-based. Particulars: Human IMR-90 lung fibroblast cells, up-regulated BKB1 receptors, agonist desArg10-kallidin (DAKD) 2 to 8 nM, calcium-dependent fluorescence. Here is the method: Calcium mobilization assay (FLIPR)—Human (IMR-90) lung fibroblast cells expressing native B1 receptors were harvested by trypsinization and seeded into black wall/clear bottom 96-well plates (Costar 3904; Corning Life Sciences, Acton, Mass.) at approximately 13,000 cells/well. After 1 day incubation, cells were treated with […] (0.35 ng/ml) in 10% FBS/MEM for 2 h to up-regulate BKB1 receptors. Induced cells were loaded with fluorescent calcium indicator by incubation with 2.3 μM Fluo-4/acetoxymethyl ester (Invitrogen) at 37° C. for 1.5 h in the presence of an anion transport inhibitor (2.5 mM probenecid in 1% FBS/MEM). Extracellular dye was removed by washing with assay buffer (2.5 mM probenecid, 0.1% BSA in 20 mM HEPES/HBSS without bicarbonate or phenol red, pH 7.5) and cell plates were kept in the dark until used. Test compounds were assayed at eight concentrations in triplicate. Addition of test compounds to the cell plate and incubation for 5 min at 35° C., followed by the addition of 2 to 8 nM final BK1 agonist desArg^10-kallidin (DAKD, 3×EC50) was carried out in the fluorimetric imaging plate reader (FLIPR; Molecular Devices) while continuously monitoring calcium-dependent fluorescence.
In general terms: Calcium flux is commonly read through the fluorescence of an indicator in the cells.
Regarding `CC(C)Cc1ccc(C(C)C(=O)Nc2cc[n+](C)cn2)cc1` (stereo not shown) [Compound 39, 1-methyl-4-({2-[4-(2-methylpropyl)phenyl]propanoyl}amino)pyrimidin-1-ium iodide], the IC50 was 12.6 µM.

With `Cc1cc(NC(=O)C(C)c2ccc(CC(C)C)cc2)n(C)n1` (stereo not shown) [Compound 40, N-(1,3-dimethyl-1H-pyrazol-5-yl)-2-[4-(2-methylpropyl)phenyl]propanamide], the IC50 was 2.09 µM.

For the molecule `CCn1nc(C)cc1NC(=O)C(C)c1ccc(Nc2nc(C(F)(F)F)cs2)cc1` (stereo not shown) [Compound 41, N-(1-ethyl-3-methyl-1H-pyrazol-5-yl)-2-(4-{[4-(trifluoromethyl)-1,3-thiazol-2-yl]amino}phenyl)propanamide], the IC50 was 10 µM.

For the molecule `CC1CC(C)CN(CCNC(=O)C(C)c2ccc(Nc3nc(C(F)(F)F)cs3)cc2)C1` (stereo not shown) [Compound 42, N-[2-(3,5-dimethylpiperidin-1-yl)ethyl]-2-(4-{[4-(trifluoromethyl)-1,3-thiazol-2-yl]amino}phenyl)propanamide], the IC50 was 6.61 µM.

As for `CC(C(=O)NC(c1ccco1)N1CCOCC1)c1ccc(Nc2nc(C(F)(F)F)cs2)cc1` (stereo not shown) [Compound 43, N-[furan-2-yl(morpholin-4-yl)methyl]-2-(4-{[4-(trifluoromethyl)-1,3-thiazol-2-yl]amino}phenyl)propanamide], the IC50 is 12.9 µM.

As to `CC(C(=O)Nc1ccc(Cc2ccncc2)cc1)c1ccc(Nc2nc(C(F)(F)F)cs2)cc1` (stereo not shown) [Compound 44, N-[4-(pyridin-4-ylmethyl)phenyl]-2-(4-{[4-(trifluoromethyl)-1,3-thiazol-2-yl]amino}phenyl)propanamide], the IC50 was 11.5 µM.

With `CC(C(=O)Nc1ccncc1)c1ccc(OS(=O)(=O)C(F)(F)F)cc1` (stereo not shown) [Compound 47, 4-[1-oxo-1-(pyridin-4-ylamino)propan-2-yl]phenyl trifluoromethanesulfonate], the concentration for half-maximal inhibition (IC50) is 3.24 µM.

With `CC(C(=O)Nc1ccc(Cc2ccncc2)cc1)c1ccc(OS(=O)(=O)C(F)(F)F)cc1` (stereo not shown) [Compound 48, 4-{1-oxo-1-[4-(pyridin-4-ylmethyl)propan-2-yl]amino}phenyl trifluoromethanesulfonate], the IC50 is 12.6 µM.

As to `COc1cccc(CN(C)CCCNC(=O)C(C)c2ccc(OS(=O)(=O)C(F)(F)F)cc2)c1` (stereo not shown) [Compound 50, 4-(1-{[3-[3-methoxybenzyl(methyl)amino]propyl}amino-1-oxopropan-2-yl)phenyl trifluoromethanesulfonate], the IC50 is 3.63 µM.

`Cc1ccc(OCC(O)CNC(=O)C(C)c2ccc(OS(=O)(=O)C(F)(F)F)cc2)cc1C` (stereo not shown) [Compound 51, 4-[3-(3,4-dimethylphenoxy)-2-hydroxypropyl]amino-1-oxopropan-2-yl)phenyl trifluoromethanesulfonate]: the IC50 was 11.5 µM.

Take `CCOCCCNC(=O)C(C)c1cccc(Nc2cc(OC)cc(C(F)(F)F)c2)c1` (stereo not shown) [Compound 52, 2-(3-{[3-methoxy-5-(trifluoromethyl)phenyl]amino}phenyl)-N-(3-ethoxypropyl)propanamide]: the IC50 was 8.91 µM.

Take `COc1cc(Nc2cccc(C(C)C(=O)Nn3cccc3)c2)cc(C(F)(F)F)c1` (stereo not shown) [Compound 53, 2-(3-{[3-methoxy-5-(trifluoromethyl)phenyl]amino}phenyl)-N-(1H-pyrrol-1-yl)propanamide]: the IC50 is 14.5 µM.

`COc1cc(Nc2cccc(C(C)C(=O)NNC(=O)c3ccco3)c2)cc(C(F)(F)F)c1` (stereo not shown) [Compound 54, N′-{2-[3-(3-methoxy-5-(trifluoromethyl)phenylamino)phenyl]propanoyl}furan-2-carbohydrazide]: the IC50 was 8.51 µM.

As for `COc1cc(Nc2cccc(C(C)C(=O)Nc3ccncn3)c2)cc(C(F)(F)F)c1` (stereo not shown) [Compound 55, 2-(3-{[3-methoxy-5-(trifluoromethyl)phenyl]amino}phenyl)-N-(pyrimidin-4-yl)propanamide], the IC50 was 5.25 µM.

Consider `CCNC(=O)C(C)c1cccc(Nc2cc(OC)cc(C(F)(F)F)c2)c1` (stereo not shown) [Compound 56, N-ethyl-2-(3-{[3-methoxy-5-(trifluoromethyl)phenyl]amino}phenyl)propanamide], for which the IC50 is 7.76 µM.

Take `COc1cc(Nc2cccc(C(C)C(=O)NCCNCc3ccccc3)c2)cc(C(F)(F)F)c1` (stereo not shown) [Compound 57, 2-{3-[(3-methoxy-5-(trifluoromethyl)phenyl)amino]phenyl}-N-[2-(benzylamino)ethyl]propanamide]: the IC50 was 3.47 µM.

As to `COc1cc(Nc2cccc(C(C)C(=O)NCC(C)(C)N)c2)cc(C(F)(F)F)c1` (stereo not shown) [Compound 58, N-(2-amino-2-methylpropyl)-2-[3-{[3-methoxy-5-(trifluoromethyl)phenyl]amino}phenyl]propanamide], the IC50 was 5.89 µM.

On to `COc1cc(Nc2cccc(C(C)C(=O)NC3CCCCC3N)c2)cc(C(F)(F)F)c1` (stereo not shown) [Compound 59, N-(2-aminocyclohexyl)-2-[3-{[3-methoxy-5-(trifluoromethyl)phenyl]amino}phenyl]propanamide], for which the IC50 is 6.92 µM.

`COC(=O)C(CNC(=O)OC(C)(C)C)NC(=O)C(C)c1ccc(Oc2cccc3ccccc23)cc1` (stereo not shown) [Compound 60, methyl 3-[(tert-butoxycarbonyl)amino]-2-[4-(naphthalen-1-yloxyphenyl)propanoyl]aminopropanoate]: the IC50 is 10.5 µM.

Regarding `CC(C(=O)NCCNCc1ccccc1)c1ccc(Oc2cccc3ccccc23)cc1` (stereo not shown) [Compound 61, N-[2-(benzylamino)ethyl]-2-[4-(naphthalen-1-yloxy)phenyl]propanamide], the IC50 was 3.24 µM.

Take `CC(C(=O)NCCCN(C)C)c1ccc(Oc2cccc3ccccc23)cc1` (stereo not shown) [Compound 62, N-[3-(dimethylamino)propyl]-2-[4-(naphthalen-1-yloxy)phenyl]propanamide]: the IC50 was 3.8 µM.

In the case of `CC(C(=O)NCCCNC1CCCCC1)c1ccc(Oc2cccc3ccccc23)cc1` (stereo not shown) [Compound 63, N-[3-(cyclohexylamino)propyl]-2-[4-(naphthalen-1-yloxy)phenyl]propanamide], the IC50 was 3.89 µM.

`CC(C(=O)Nn1cnnc1)c1ccc(Oc2cccc3ccccc23)cc1` (stereo not shown) [Compound 64, 2-[4-(naphthalen-1-yloxy)phenyl]-N-(4H-1,2,4-triazol-4-yl)propanamide]: the IC50 was 8.91 µM.

As for `CC(C(=O)NCCC1CCCN1C)c1ccc(Oc2cccc3ccccc23)cc1` (stereo not shown) [Compound 65, 2-[4-(naphthalen-1-yloxy)phenyl]-N-[2-(1-methylpyrrolidin-2-yl)ethyl]propanamide], the IC50 is 4.79 µM.

In the case of `CC(=O)NCCNC(=O)C(C)c1ccc(Oc2cccc3ccccc23)cc1` (stereo not shown) [Compound 66, N-[2-(acetylamino)ethyl]-2-[4-(naphthalen-1-yloxy)phenyl]propanamide], the IC50 was 6.61 µM.

Turning to `CC(C(=O)NCCN1CCOCC1)c1ccc(Oc2cccc3ccccc23)cc1` (stereo not shown) [Compound 67, 2-[4-(naphthalen-1-yloxy)phenyl]-N-[2-(morpholin-4-yl)ethyl]propanamide], the IC50 was 4.07 µM.

On to `CC(C(=O)Nc1ccncc1)c1ccc(Oc2cccc(F)c2)cc1` (stereo not shown) [Compound 68, 2-[4-(3-fluroophenoxy)phenyl]-N-(pyridin-4-yl)propanamide], for which the IC50 was 6.17 µM.

As for `CC(C(=O)Nc1ccncn1)c1ccc(N2CCCCC2)cc1` (stereo not shown) [Compound 69, 2-[4-(piperidin-1-yl)phenyl]-N-(pyrimidin-4-yl)propanamide], the IC50 was 14.1 µM.

On to `CC(C(=O)NCCC1CCN(c2ccncc2)CC1)c1ccc(Nc2ccccc2-n2cccc2)cc1` (stereo not shown) [Compound 70, N-{2-[1-(pyridin-4-yl)piperidin-4-yl]ethyl}-2-(4-{[2-(1H-pyrrol-1-yl)phenyl]amino}phenyl)propanamide], for which the IC50 is 0.708 µM.

For `CC(C(=O)Nc1ccncc1)c1ccc(Nc2ccc(F)cc2)cc1` (stereo not shown) [Compound 71, 2-{4-[(4-fluorophenyl)amino]phenyl}-N-(pyridin-4-yl)propanamide], the IC50 was 4.47 µM.

For the molecule `CC(C(=O)Nc1ccncn1)c1ccc(Oc2ccc(F)cc2)cc1` (stereo not shown) [Compound 72, 2-[4-(4-fluorophenoxy)phenyl]-N-(pyrimidin-4-yl)propanamide], the half-maximal inhibitory concentration (IC50) was 3.39 µM.

Regarding `CC(C(=O)Nc1ccncc1)c1cccc(Oc2ccc3ccccc3c2)c1` (stereo not shown) [Compound 73, 2-[3-(naphthalen-2-yloxy)phenyl]-N-(pyridin-4-yl)propanamide], the IC50 was 2.82 µM.

For the molecule `CC(C(=O)Nc1ccncc1)c1cccc(Nc2ccc(F)cc2)c1` (stereo not shown) [Compound 74, 2-{3-[(4-fluorophenyl)amino]phenyl}-N-(pyridin-4-yl)propanamide], the IC50 is 1 µM.

As for `CC(C(=O)Nc1cnccn1)c1ccc(Oc2ccc(F)cc2)cc1` (stereo not shown) [Compound 75, 2-[4-(4-fluorophenoxy)phenyl]-N-(pyrazin-2-yl)propanamide], the IC50 is 1.2 µM.

In general, IC50 refers to the midpoint of a concentration-inhibition curve.
